Reference: patent publication US4918064A, “Phenyl glycines for use in reducing neurotoxic injury” (G. D. Searle & Co., priority 1987, dated 1990)

Assays:
CD-1 mouse = experiment: In Vivo 3-MPA-Induced Convulsions (tonic hindlimb extension)
Experimental: In the CD-1 mouse, i.p. injection of 3-MPA produces clonic seizures, tonic hindlimb extension and death. Seizures begin within 2-3 minutes after injection. The dose-response for induction of tonus by 3-MPA is unusual. The incidence of tonus increases rapidly from 35 to 50 mg/kg and remains constant at a less than maximal level over a broad dose range. 3-MPA doses from 50 to 150 mg/kg produce tonus in approximately 75% of the treated mice. The incidence of death over this dose range is variable and less than maximal.
In order to test for antagonism of 3-MPA-induced tonus, the lowest dose of 3-MPA that produced tonus consistently in 75% of the animals (50 mg/kg i.p.) was chosen. Test compounds were administered subcutaneously 30-40 minutes prior to i.p. administration of 3-MPA. Immediately after 3-MPA administration, each mouse was placed in a small cage made of steel rods. The mice were then observed for the presence or absence of tonic hindlimb extension. Reduction (from 75%) in the incidence of tonic hindlimb extension was considered protection from 3-MPA-induced convulsions. The dose of the test compound varied using groups of ten mice per dose until dose response curves are constructed, and ED50 's are calculated.

NMDA receptor = experiment: NMDA-specific L-[3H]glutamate receptor binding assay, synaptic plasma membranes; settings: L-[3H]glutamate 12.5 nM, Triton X-100 treated SPM, 0-4° C., 10 min
Experimental: (§1) Synaptic plasma membranes (SPM) were prepared as previously described [Monahan, J. B. and Michel, J., "Identification and Characterization of an N-methyl-D-aspartate-specific L[^3 H]glutamate Recognition Site in Synaptic Plasma Membranes, J. Neurochem., 48, 1699-1708 (1987)]. The SPM were stored at a concentration of 10-15 mg/ml in 0.32M sucrose, 0.5 mM EDTA, 1 mM MgSO4, 5 mM Tris/SO4, pH 7.4, under liquid nitrogen. The identity and purity of the subcellular fractions were confirmed by both electron microscopy and marker enzymes. Protein concentrations were determined by using a modification of the method of Lowry [Ohnishi, S. T. and Barr, J. K., "A Simplified Method of Quantitating Proteins Using the Biuret and Phenol Reagents", Anal. Biochem., 86, 193-197 (1978)].
Prior to use in the NMDA-specific L-[^3 H]glutamate binding assay the SPM were thawed, diluted twenty fold with 50 mM Tris/acetate, pH 7.4 containing 0.04% (v/v) Triton X-100, incubated for 30 minutes at 37° C. and centrifuged as described above. The Triton X-100 treated membranes were washed with 50 mM Tris/acetate, pH 7.4 and centrifuged at 100,000 g for 15 minutes a total of four times.
(§2) The basic procedure for the receptor subclass binding assays was similar. This general method involved adding the radioligand (12.5 nM L-[^3 H]glutamate; 0.5 nM [^3 H]kainate or 10 nM [^3 H]AMPA) to the appropriate concentration of the test compound and initiating the assay by the addition of ice cold synaptic plasma membranes (0.2-0.45 mg). The binding assays were performed in 1.5 mL centrifuge tubes with the total volume adjusted to 1.0 mL. .Additions of test compounds were made in 50 mM Tris/acetate, pH 7.4 and incubations were carried out at 0°-4° C. The incubation time for the NMDA and the AMPA binding assays was 10 minutes, for the kainate binding assay 60 minutes and for the sodium-dependent glutamate binding assay 15 minutes. The AMPA binding assay contained 100 mM KSCN and the sodium-dependent glutamate binding assay contained 150 mM sodium acetate in addition to the previously described reagents.
(§3) To terminate the incubation, the samples were centrifuged for 15 minutes at 12,000 g and 4° C. in a Beckman Microfuge 12. The supernatant was aspirated and the pelleted membranes dissolved in Beckman BTS-450 tissue solubilizer for a minimum of 6 hours at room temperature. Beckman MP scintillation cocktail containing 7 mL/1 acetic acid was then added and the samples counted on a Beckman LS 5800 or 3801 liquid scintillation counter with automatic corrections for quenching and counting efficiency.
(§4) Nonspecific binding was defined as the residual binding in the presence of either excess L-glutamate (0.1-0.4 mM), kainate (0.01 mM), or NMDA (0.5 mM), and was 15-25% of the total binding in the NMDA binding assay, 19-27% in the AMPA binding assay, 20-30% in the kainate binding assay and 10-15% in the sodium-dependent binding assay. Radioligand binding to the synaptic plasma membranes was analyzed using Scatchard and Hill transformations and the Ki values of the compounds determined using logit-log transformations. Calculations and regression analysis were performed using templates developed for Lotus 1, 2, 3 as previously described [Pullan, L. M. "Automated Radioligand Receptor Binding Analysis with Templates for Lotus", Computer Appln. Biosci., 3 131 (1987)]. Binding results are reported in Table II for example compounds of the invention. […]

[1] = molecular target: Quis (quisqualate) receptor; experiment: [3H]AMPA (QUIS) receptor binding assay, synaptic plasma membranes; settings: [3H]AMPA 10 nM, 100 mM KSCN, 0-4° C., 10 min
Experimental: as §1
(§5) The SPM were treated identically for the [^3 H]AMPA (QUIS), [^3 H]kainate and sodium-dependent L-[^3 H]-glumatate binding assays. The SPM were thawed at room temperature, diluted twenty-fold with 50 mM Tris/acetate, pH 7.4, incubated at 37° C. for 30 minutes, and centrifuged at 100,000 g for 15 minutes. The dilution, incubation, and centrifugation was repeated a total of three times.
as §2, §3, §4

KA (kainate) receptor = experiment: [3H]kainate receptor binding assay, synaptic plasma membranes; settings: [3H]kainate 0.5 nM, 0-4° C., 60 min
Experimental: as §1, §5, §2, §3, §4

chick embryo retina = settings: agonist alone, pilot experiments, 30 min; cited from earlier work

| SMILES | mice with tonus produced by 3-MPA (CD-1 mouse; 3-MPA 50 to 150 mg/kg i.p.) | time after injection at which seizures begin (CD-1 mouse; 3-MPA i.p.) | lowest dose of 3-MPA that produced tonus consistently in 75% of the animals (CD-1 mouse; i.p.) | Ki (NMDA receptor) | Ki [1] | Receptor binding, KA (Ki) (KA (kainate) receptor) | lowest concentration required to consistently obtain fully developed retinal lesions (chick embryo retina) |
| --- | --- | --- | --- | --- | --- | --- | --- |
| O=C(O)CCS [Example 3-MPA] | approximately 75% | 2 to 3 min | 50 mg/kg |  |  |  |  |
| N[C@H](CCCCCP(=O)(O)O)C(=O)O [D-AP7, reference compound] |  |  |  | 4 µM | > 300 µM | > 300 µM |  |
| NC(CCCCCP(=O)(O)O)C(=O)O (racemic) [D,L-AP7, D,L-2-amino-7-phosphonoheptanoic acid, reference compound] |  |  |  | 5.4 µM | > 300 µM | > 300 µM |  |
| CCOP(=O)(O)Cc1ccc(C(N)C(=O)O)cc1 (stereo not shown) [VII, 4-(Ethylphosphonomethyl)phenylglycine] |  |  |  | 70 µM | > 300 µM | > 300 µM |  |
| C=C(C)[C@H]1CN[C@H](C(=O)O)[C@H]1CC(=O)O [KA, Kainate] |  |  |  |  |  |  | 25 µM |
| Cc1cc(C(N)C(=O)O)c(C)cc1CP(=O)(O)O.Cl (stereo not shown) [X, 2,5-dimethyl-4-(phosphonomethyl)phenylglycine hydrochloride] |  |  |  | 21.3 µM | > 300 µM | > 300 µM |  |
